“Also recorded” adds a separate entry of the source. Blank lines part the entries; values can stand above or below the molecule they belong to. Where no end group is shown, it is not given here.
What was measured:
[1] = target: T1, FPRL1 (Homo sapiens, UniProt P25090); experiment: Competition binding with 125I-WKYMVm on human monocytes; set-up: endogenous in cells; host or cells: human CD14+ monocytes from buffy coats
T1 sequence (P25090 1-351): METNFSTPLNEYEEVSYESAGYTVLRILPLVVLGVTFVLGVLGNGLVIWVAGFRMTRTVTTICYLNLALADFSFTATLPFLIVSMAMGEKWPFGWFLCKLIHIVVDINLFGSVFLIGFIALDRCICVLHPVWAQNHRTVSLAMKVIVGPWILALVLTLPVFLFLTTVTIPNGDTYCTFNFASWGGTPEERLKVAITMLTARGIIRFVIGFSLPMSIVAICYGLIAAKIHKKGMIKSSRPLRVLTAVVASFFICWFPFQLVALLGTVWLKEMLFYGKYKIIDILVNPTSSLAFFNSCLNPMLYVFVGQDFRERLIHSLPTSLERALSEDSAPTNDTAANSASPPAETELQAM

[2] = system: leukocytes (neutrophils); experiment: Leukocyte recruitment to skin after intradermal injection; assay type: in vivo; conditions: 2 μg intradermally, c57Bl/6 and BALB/c mice, 6 hours
Experimental: Immunohistochemistry. BALB/c and c57Bl/6 mice were injected intradermally with 50 μl sterile saline with or without 2 μg SHAAGtide. 6 hours later, mice were euthanized and the skin surrounding the injection site was excised. After immersion in 10% neutral-buffered formalin for 18-24 hours, the skin biopsy was processed in graded alcohols and embedded in paraffin wax. 5 μm-wide sections were cut on a Leica microtome, transferred to glass slides, deparaffinized in xylenes, and hydrated through graded alcohols. The sections were either stained with hematoxylin and eosin (Sigma, St. Louis Mo.) or stained immunohistochemically for neutrophils as follows. The slides were immersed in Target Retrieval solution (Dako, Carpinteria Calif.) for 20 minutes at 90° C., rinsed with water and immersed in tris-buffered saline (TBS) containing 2% bovine serum albumin for 20 minutes. The sections were then exposed to rat anti-mouse neutrophil monoclonal antibody (Accurate Chemical and Scientific, Westbury N.Y.) or rat IgG2a isotype control antibody (BD Pharmingen, San Diego Calif.) for 1 hour, rinsed with TBS, and exposed to biotinylated goat anti-rat Ig (Dako) for 30 minutes. The sections were then rinsed with TBS, stained with the ABC-AP and fuchsin reagents (both from Dako), rinsed with water, and counterstained with hematoxylin for 2 minutes. […]

[3] = target: T2, CCR1 (Homo sapiens, UniProt P32246); experiment: Competition binding with 125I-MIP-1α on human monocytes; set-up: endogenous in cells; host or cells: human CD14+ monocytes from buffy coats
T2 sequence (P32246 1-355): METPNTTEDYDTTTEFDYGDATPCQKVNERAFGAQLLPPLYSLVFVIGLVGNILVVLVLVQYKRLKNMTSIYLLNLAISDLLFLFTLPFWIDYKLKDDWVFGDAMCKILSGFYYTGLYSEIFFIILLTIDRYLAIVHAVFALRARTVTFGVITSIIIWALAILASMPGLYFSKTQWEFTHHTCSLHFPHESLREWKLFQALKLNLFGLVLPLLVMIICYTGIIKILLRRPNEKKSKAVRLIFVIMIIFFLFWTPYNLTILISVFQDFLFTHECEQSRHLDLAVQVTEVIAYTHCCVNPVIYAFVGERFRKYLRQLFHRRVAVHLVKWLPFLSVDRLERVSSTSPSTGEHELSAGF
Experimental: (§1) Binding assay. Competition binding studies were conducted using monocytes, L1.2-CCR1 or L1.2-FPRL1 cells. Cells were incubated for 3 hr at 4° C. with ^125I-MIP-1α (final concentration ˜0.05 nM) or ^125I-WKYMVm (final concentration ˜0.01 nM) in buffer (25 mM HEPES, 140 mM NaCl, 1 mM CaCl2, 5 mM MgCl2 and 0.2% BSA, adjusted to pH 7.1) in the presence of increasing amounts of unlabeled chemokine. Reactions were aspirated onto PEI-treated GF/B glass filters using a cell harvester (Packard). Filters were washed twice (25 mM HEPES, 500 mM NaCl, 1 mM CaCl2, 5 mM MgCl2, adjusted to pH 7.1). Scintillant (MicroScint-10; 35 μl) was added to the filters and counted in a Packard Topcount scintillation counter. Data were analyzed and plotted using Prism (GraphPad Software, San Diego, Calif.).

[4] = target: T2, CCR1; experiment: Competition binding with 125I-MIP-1α on L1.2-CCR1 cells; set-up: endogenous in cells; host or cells: human CD14+ monocytes from buffy coats
Experimental: as §1

[5] = target: T2, CCR1; experiment: Calcium mobilization in murine L1.2 cells expressing human CCR1; assay type: cell-based; set-up: expressed in transfected cells; host or cells: murine L1.2 cells (G-418 selected transfectant); conditions: L1.2 cells stably expressing human CCR1
Experimental: Calcium Mobilization Assay. Cells were loaded for 1 hour with 2 μM indo-1/AM dye (Molecular Probes, Eugene, Oreg.) in culture medium, then washed with 10 ml PBS and resuspended at 10^6/ml in HBSS containing 1% FBS. Cytosolic calcium responses were determined using a Photon Technology International (Lawrenceville, N.J.) fluorimeter, with excitation at 350 nm and dual emission at 400 and 490 nm. Alternatively, cells were loaded with 5 μg/ml Fluo-4 AM dye (Molecular Probes, Eugene, Oreg.), then washed and analyzed on a Fluorometric Imaging Plate Reader 384 (FLIPR^384 Molecular Devices, Sunnyvale, Calif.), with 505 nm excitation and 530 nm emission.
Receptor signaling assay. For individual measurements, cells were loaded for 45 min at room temperature with 2 μM indo-1/AM (Invitrogen, Carlsbad Calif.) in culture medium, then washed with 10 ml PBS and resuspended at 10^6 cells/ml in HBSS containing 0.1% BSA. Cytosolic calcium levels were determined using a Photon Technology International fluorimeter (excitation at 350 nm, ratio of dual emission at 400 and 490 nm). For measuring calcium dose responses, cells were analyzed with a Fluorometric Imaging Plate Reader 384 (FLIPR^384) (Molecular Devices, Sunnyvale, Calif.). Cells were loaded for 1 hr at 37° C. with 5 μM fluo-4 in HBSS with 0.1% BSA, then washed, transferred to black-wall 96-well plates, and subsequently excited at 505 nm with emission recorded at 530 nm with a standard protocol provided by the manufacture. Cells were stimulated with agonists 20 s after the monitoring of fluorescence began. Data were analyzed and plotted in arbitrary units of fluorescence using Prism. To ensure that responses were specific to FPRL1, we utilized a selective small-molecule antagonist of human FPRL1, generated by ChemoCentryx, which was optimized from a high throughput compound library screening approach.

IC50 [1]: 10 nM
inhibition of 125I-MIP-1α binding [3]: did not inhibit
Molecule: MLWRRKIGPQMTLSHAAG [SHAAGtide]
mice with recruitment of leukocytes (primarily neutrophils) into the subcutis region of the dermis [2]: 6 of 6
inhibition of 125I-MIP-1α binding [4]: unable to inhibit binding; also recorded: does not bind CCR1

inhibition of 125I-MIP-1α binding [3]: moderate competitors
B1: CCL23β Δ24: truncated form of CCL23β lacking the 24-residue N-terminal domain, beginning with the SHAAGtide insertion (protein, listed as Homo sapiens)
chain: MLWRRKIGPQMTLSHAAGFHATSADCCISYTPRSIPCSLLESYFETNSECSKPGVIFLTKKGRRFCANPSDKQVQVCMRMLKLDTRIKTRKN
calcium mobilization in the CCR1 transfectant [5]: effective at inducing calcium mobilization

From patent publication US7572600B2, “Enzymatic activities in chemokine-mediated inflammation” (Chemocentryx, Inc., priority 2004, dated 2009)
